Measurements as given in ChEMBL document CHEMBL3885881, “DrugMatrix”.

Organism: Rattus norvegicus
Assay: DrugMatrix - Regimen: Daily Repeat
Type: toxicity, organism-based, Sprague-Dawley
Set-up: regimen Daily Repeat, gender Male, age 6-8 weeks
Settings: in vivo, po, route oral GAVAGE, vehicle 100 % WATER; for ABSOLUTE BASOPHIL / ABSOLUTE EOSINOPHIL / ABSOLUTE LYMPHOCYTE / ABSOLUTE MONOCYTE / ABSOLUTE SEGMENTED NEUTROPHIL / BASOPHIL / EOSINOPHIL / ERYTHROCYTE COUNT / HEMATOCRIT / HEMOGLOBIN / LEUKOCYTE COUNT / LYMPHOCYTE / MEAN CORPUSCULAR HEMOGLOBIN / MEAN CORPUSCULAR HEMOGLOBIN CONCENTRATION / MEAN CORPUSCULAR VOLUME / MONOCYTE / NEUTROPHIL / NUCLEATED RED BLOOD CELLS / PLATELET COUNT: tissue Blood; for ALANINE AMINOTRANSFERASE / ALBUMIN / ALKALINE PHOSPHATASE / ASPARTATE AMINOTRANSFERASE / BLOOD UREA NITROGEN / CARBON DIOXIDE / CHLORIDE / CHOLESTEROL / CREATINE PHOSPHOKINASE / CREATININE / GLUCOSE / LACTATE DEHYDROGENASE / LIPASE / PHOSPHORUS / POTASSIUM / SODIUM / TOTAL BILIRUBIN / TOTAL PROTEIN / URIC ACID: tissue Plasma
[1] = 31 mg/kg, 120 h, dose level Low, time 5 day
[2] = 2629 mg/kg, 72 h, dose level High, time 3 day
[3] = 2629 mg/kg, 120 h, dose level High, time 5 day

SMILES: Nc1ccc(S(=O)(=O)Nc2nccs2)cc1 [SULFATHIAZOLE]
- ABSOLUTE BASOPHIL [1]: 0 CELLS/uL
- ABSOLUTE EOSINOPHIL [1]: 44 CELLS/uL
- ABSOLUTE LYMPHOCYTE [1]: 11208.67 CELLS/uL
- ABSOLUTE MONOCYTE [1]: 0 CELLS/uL
- ABSOLUTE SEGMENTED NEUTROPHIL [1]: 914 CELLS/uL
- BASOPHIL [1]: 0%
- EOSINOPHIL [1]: 0.33%
- ERYTHROCYTE COUNT [1]: 5.37 x10E6/uL
- HEMATOCRIT [1]: 32.6%
- HEMOGLOBIN [1]: 12.8 G/DL
- LEUKOCYTE COUNT [1]: 12.17 x10E3/uL
- LYMPHOCYTE [1]: 92%
- MEAN CORPUSCULAR HEMOGLOBIN [1]: 23.87 pg
- MEAN CORPUSCULAR HEMOGLOBIN CONCENTRATION [1]: 39.27 G/DL
- MEAN CORPUSCULAR VOLUME [1]: 60.87 fL
- MONOCYTE [1]: 0%
- NEUTROPHIL [1]: 7.67%
- NUCLEATED RED BLOOD CELLS [1]: 0 /100WBC
- PLATELET COUNT [1]: 967.33 x10E3/uL
- ALANINE AMINOTRANSFERASE [1]: 55 u/L
- ALBUMIN [1]: 3.97 G/DL
- ALKALINE PHOSPHATASE [1]: 332.33 u/L
- ASPARTATE AMINOTRANSFERASE [1]: 80.33 u/L
- BLOOD UREA NITROGEN [1]: 15.33 mg/dL
- CARBON DIOXIDE [1]: 26.67 mmol/L
- CHLORIDE [1]: 101.67 MEQ/L
- CHOLESTEROL [1]: 68.33 mg/dL
- CREATINE PHOSPHOKINASE [1]: 466 u/L
- CREATININE [1]: 0.16 mg/dL
- GLUCOSE [1]: 230.67 mg/dL
- LACTATE DEHYDROGENASE [1]: 161.67 u/L
- LIPASE [1]: 8.33 u/L
- PHOSPHORUS [1]: 12.43 mg/dL
- POTASSIUM [1]: 5.22 MEQ/L
- SODIUM [1]: 142.17 MEQ/L
- TOTAL BILIRUBIN [1]: 0.13 mg/dL
- TOTAL PROTEIN [1]: 5.83 G/DL
- URIC ACID [1]: 1.13 mg/dL
- ABSOLUTE BASOPHIL [2]: 0 CELLS/uL
- ABSOLUTE EOSINOPHIL [2]: 0 CELLS/uL
- ABSOLUTE LYMPHOCYTE [2]: 13130 CELLS/uL
- ABSOLUTE MONOCYTE [2]: 74.67 CELLS/uL
- ABSOLUTE SEGMENTED NEUTROPHIL [2]: 1895.33 CELLS/uL
- BASOPHIL [2]: 0%
- EOSINOPHIL [2]: 0%
- ERYTHROCYTE COUNT [2]: 6.25 x10E6/uL
- HEMATOCRIT [2]: 39.77%
- HEMOGLOBIN [2]: 15.4 G/DL
- LEUKOCYTE COUNT [2]: 15.1 x10E3/uL
- LYMPHOCYTE [2]: 87%
- MEAN CORPUSCULAR HEMOGLOBIN [2]: 24.67 pg
- MEAN CORPUSCULAR HEMOGLOBIN CONCENTRATION [2]: 38.77 G/DL
- MEAN CORPUSCULAR VOLUME [2]: 63.6 fL
- MONOCYTE [2]: 0.67%
- NEUTROPHIL [2]: 12.33%
- NUCLEATED RED BLOOD CELLS [2]: 0.33 /100WBC
- PLATELET COUNT [2]: 1369.33 x10E3/uL
- ALANINE AMINOTRANSFERASE [2]: 62 u/L
- ALBUMIN [2]: 3.93 G/DL
- ALKALINE PHOSPHATASE [2]: 291 u/L
- ASPARTATE AMINOTRANSFERASE [2]: 83 u/L
- BLOOD UREA NITROGEN [2]: 13.33 mg/dL
- CARBON DIOXIDE [2]: 23.67 mmol/L
- CHLORIDE [2]: 105.33 MEQ/L
- CHOLESTEROL [2]: 68.67 mg/dL
- CREATINE PHOSPHOKINASE [2]: 777 u/L
- CREATININE [2]: 0.18 mg/dL
- GLUCOSE [2]: 146.67 mg/dL
- LACTATE DEHYDROGENASE [2]: 269.33 u/L
- LIPASE [2]: 9.33 u/L
- PHOSPHORUS [2]: 12.5 mg/dL
- POTASSIUM [2]: 5.42 MEQ/L
- SODIUM [2]: 148.07 MEQ/L
- TOTAL BILIRUBIN [2]: 0.1 mg/dL
- TOTAL PROTEIN [2]: 5.7 G/DL
- URIC ACID [2]: 2.33 mg/dL
- ABSOLUTE BASOPHIL [3]: 0 CELLS/uL
- ABSOLUTE EOSINOPHIL [3]: 30.33 CELLS/uL
- ABSOLUTE LYMPHOCYTE [3]: 11698 CELLS/uL
- ABSOLUTE MONOCYTE [3]: 241.67 CELLS/uL
- ABSOLUTE SEGMENTED NEUTROPHIL [3]: 1363.33 CELLS/uL
- BASOPHIL [3]: 0%
- EOSINOPHIL [3]: 0.33%
- ERYTHROCYTE COUNT [3]: 6.23 x10E6/uL
- HEMATOCRIT [3]: 38.77%
- HEMOGLOBIN [3]: 14.67 G/DL
- LEUKOCYTE COUNT [3]: 13.33 x10E3/uL
- LYMPHOCYTE [3]: 87%
- MEAN CORPUSCULAR HEMOGLOBIN [3]: 23.53 pg
- MEAN CORPUSCULAR HEMOGLOBIN CONCENTRATION [3]: 37.83 G/DL
- MEAN CORPUSCULAR VOLUME [3]: 62.27 fL
- MONOCYTE [3]: 2%
- NEUTROPHIL [3]: 10.67%
- NUCLEATED RED BLOOD CELLS [3]: 0.33 /100WBC
- PLATELET COUNT [3]: 1447 x10E3/uL
- ALANINE AMINOTRANSFERASE [3]: 59.33 u/L
- ALBUMIN [3]: 4.2 G/DL
- ALKALINE PHOSPHATASE [3]: 266.67 u/L
- ASPARTATE AMINOTRANSFERASE [3]: 58 u/L
- BLOOD UREA NITROGEN [3]: 14.33 mg/dL
- CARBON DIOXIDE [3]: 21.33 mmol/L
- CHLORIDE [3]: 105 MEQ/L
- CHOLESTEROL [3]: 64.33 mg/dL
- CREATINE PHOSPHOKINASE [3]: 224.67 u/L
- CREATININE [3]: 0.24 mg/dL
- GLUCOSE [3]: 148.67 mg/dL
- LACTATE DEHYDROGENASE [3]: 185.33 u/L
- LIPASE [3]: 11.33 u/L
- PHOSPHORUS [3]: 9.7 mg/dL
- POTASSIUM [3]: 5.17 MEQ/L
- SODIUM [3]: 145.03 MEQ/L
- TOTAL BILIRUBIN [3]: 0.1 mg/dL
- TOTAL PROTEIN [3]: 6 G/DL
- URIC ACID [3]: 1.37 mg/dL
